Values quoted from earlier work as cited in US10927398B2, “Compositions for CYP450 phenotyping using saliva samples” (Concordia University, Inc., priority 2015, dated 2021).
Where two headings read alike, the source gives them in different places.

Columns and labels:
[1] = cited from earlier work
plasma protein = conditions: cited from earlier work
[2] = cited from earlier work; remark: listed apart in the source
[3] = Table of Exemplary Drugs, CYP3A4
[4] = Table of Exemplary Drugs, CYP2C9
[5] = Table of Exemplary Drugs, CYP2D6
[6] = Table of Exemplary Drugs, CYP1A2
[7] = Table of Exemplary Drugs, CYP2C19

## CNC1(c2ccccc2Cl)CCCCC1=O (stereo not drawn) [Ketamine]
[1]; in vivo
  ORAL BIOAVAILABILITY: IM: 90-93%, PO: 16%
Plasma protein; plasma
  PLASMA PROTEIN BINDING: 47%
[2]; in vivo
  HALF-LIFE: 2 to 3 h

## CC(=O)N1CCN(c2ccc(OCC3COC(Cn4ccnc4)(c4ccc(Cl)cc4Cl)O3)cc2)CC1 (stereo not drawn) [Ketoconazole (Nizoral), Ketoconazole]
[1]; [3]
  ORAL BIOAVAILABILITY: 75%
Plasma protein; [3]
  PLASMA PROTEIN BINDING: 99%
[2]; [3]
  HALF-LIFE: 2 to 8 h

## CN1C(C(=O)Nc2ccccn2)=C(O)c2sc(Cl)cc2S1(=O)=O [Lornoxicam]
[1]; cell marked IM, Table of Exemplary Drugs, CYP2C9
  ORAL BIOAVAILABILITY: IM: 87%
Plasma protein; [4]
  PLASMA PROTEIN BINDING: 99.7%^
[2]; [4]
  HALF-LIFE: 4 h

## OC(c1cc(C(F)(F)F)nc2c(C(F)(F)F)cccc12)C1CCCCN1 (stereo not drawn) [Mefloquine (Lariam), Mefloquine]
[1]; [3]
  ORAL BIOAVAILABILITY: 85%
Plasma protein; [3]
  PLASMA PROTEIN BINDING: 98%
[2]; [3]
  HALF-LIFE: 3 weeks

## CCC1(c2ccccc2)C(=O)NC(=O)N(C)C1=O (stereo not drawn) [Methylphenobarbital]
[1]; in vivo, po
  ORAL BIOAVAILABILITY: 50%
Plasma protein; plasma
  PLASMA PROTEIN BINDING: 70-76% ^
[2]; in vivo
  HALF-LIFE: 31 to 67 h

## COCCc1ccc(OCC(O)CNC(C)C)cc1 (stereo not drawn) [Metoprolol]
[1]; [5]
  ORAL BIOAVAILABILITY: 77%
Plasma protein; [5]
  PLASMA PROTEIN BINDING: 12%
[2]; [5]
  HALF-LIFE: 3 to 7 h

## Cc1cccc(C)c1OCC(C)N (stereo not drawn) [Mexiletine]
[1]; [6]
  ORAL BIOAVAILABILITY: 90%
[1]; [5]
  ORAL BIOAVAILABILITY: 80-90%
Plasma protein; [6]
  PLASMA PROTEIN BINDING: 50-60% ^
Plasma protein; [5]
  PLASMA PROTEIN BINDING: 50-70% ^
[2]; [6]
  HALF-LIFE: 10 to 12 h
[2]; [5]
  HALF-LIFE: 6 to 17 h

## CN1CCN2c3ccccc3Cc3ccccc3C2C1 (stereo not drawn) [Mianserin]
[1]; [5]
  ORAL BIOAVAILABILITY: 20-30%
Plasma protein; [5]
  PLASMA PROTEIN BINDING: 90%
[2]; [5]
  HALF-LIFE: 1.4 h

## Cc1ncc2n1-c1ccc(Cl)cc1C(c1ccccc1F)=NC2 [Midazolam (Versed), Midazolam]
[1]; in vivo, po
  ORAL BIOAVAILABILITY: PO: 36%
Plasma protein; [3]
  PLASMA PROTEIN BINDING: 97%
[2]; in vivo
  HALF-LIFE: 3 to 6 h

## CC#C[C@]1(O)CC[C@H]2[C@@H]3CCC4=CC(=O)CCC4=C3[C@@H](c3ccc(N(C)C)cc3)C[C@@]21C [Mifepristone (Mifeprex), Mifepristone]
[1]; [3]
  ORAL BIOAVAILABILITY: 69%
Plasma protein; [3]
  PLASMA PROTEIN BINDING: 99.2%^
[2]; [3]
  HALF-LIFE: 20 to 85 h

## O=C(NCCN1CCOCC1)c1ccc(Cl)cc1 [Moclobemide]
[1]; [7]
  ORAL BIOAVAILABILITY: 55-95%
Plasma protein; [7]
  PLASMA PROTEIN BINDING: 50%
[2]; [7]
  HALF-LIFE: 2 h

## CC(C)[C@H]1CC[C@H](C(=O)N[C@H](Cc2ccccc2)C(=O)O)CC1 [Nateglinide]
[1]; [4]
  ORAL BIOAVAILABILITY: 73%
Plasma protein; [4]
  PLASMA PROTEIN BINDING: 98%
[2]; [4]
  HALF-LIFE: 1.5 h

## OC(CNCC(O)C1CCc2cc(F)ccc2O1)C1CCc2cc(F)ccc2O1 (stereo not drawn) [Nebivolol]
[1]; [5]
  ORAL BIOAVAILABILITY: 12-96%
Plasma protein; [5]
  PLASMA PROTEIN BINDING: 98%
[2]; [5]
  HALF-LIFE: 12 to 19 h

## CCc1nn(CCCN2CCN(c3cccc(Cl)c3)CC2)c(=O)n1CCOc1ccccc1 [Nefazodone]
[1]; [3]
  ORAL BIOAVAILABILITY: 20%
Plasma protein; [3]
  PLASMA PROTEIN BINDING: >99%
[2]; [3]
  HALF-LIFE: 2 to 4 h

## Cc1ccnc2c1NC(=O)c1cccnc1N2C1CC1 [Nevirapine (Viramune), Nevirapine]
[1]; [3]
  ORAL BIOAVAILABILITY: 80-94%
Plasma protein; [3]
  PLASMA PROTEIN BINDING: 60%
[2]; [3]
  HALF-LIFE: 25 to 45 h

## COC(=O)C1=C(C)NC(C)=C(C(=O)OCC(C)C)C1c1ccccc1[N+](=O)[O-] (stereo not drawn) [Nisoldipine (Sular), Nisoldipine]
[1]; [3]
  ORAL BIOAVAILABILITY: 5%
Plasma protein; [3]
  PLASMA PROTEIN BINDING: 99%
[2]; [3]
  HALF-LIFE: 13.7 h

## CCOC(=O)C1=C(C)NC(C)=C(C(=O)OC)C1c1cccc([N+](=O)[O-])c1 (stereo not drawn) [Nitrendipine (Baypress), Nitrendipine]
[1]; [3]
  ORAL BIOAVAILABILITY: 23%
Plasma protein; [3]
  PLASMA PROTEIN BINDING: 97-99% ^
[2]; [3]
  HALF-LIFE: 2 to 24 h

## Cc1nccn1CC1CCc2c(c3ccccc3n2C)C1=O (stereo not drawn) [Ondansetron]
[1]; [6]
  ORAL BIOAVAILABILITY: 100%
[1]; [5]
  ORAL BIOAVAILABILITY: 56%
Plasma protein; [6]
  PLASMA PROTEIN BINDING: 70-76% ^
Plasma protein; [5]
  PLASMA PROTEIN BINDING: 70-76% ^
[2]; [6]
  HALF-LIFE: 3 to 6 h
[2]; [5]
  HALF-LIFE: 3 to 6.2 h

## COc1ccc2c3c1O[C@H]1C(=O)CC[C@@]4(O)[C@@H](C2)N(C)CC[C@]314 [Oxycodone]
[1]; [5]
  ORAL BIOAVAILABILITY: 60-87%
[1]; [3]
  ORAL BIOAVAILABILITY: 60-87%
Plasma protein; [5]
  PLASMA PROTEIN BINDING: 45%
Plasma protein; [3]
  PLASMA PROTEIN BINDING: 45%
[2]; [5]
  HALF-LIFE: 5.6 h
[2]; [3]
  HALF-LIFE: 5.6 h

## CC(=O)O[C@H]1C(=O)[C@@]2(C)[C@H]([C@H](OC(=O)c3ccccc3)[C@]3(O)C[C@H](OC(=O)[C@H](O)[C@@H](NC(=O)c4ccccc4)c4ccccc4)C(C)=C1C3(C)C)[C@]1(OC(C)=O)CO[C@@H]1C[C@@H]2O [Paclitaxel (Taxol), Paclitaxel]
[1]; [3]
  ORAL BIOAVAILABILITY: 6.50%
Plasma protein; [3]
  PLASMA PROTEIN BINDING: 89-98% ^
[2]; [3]
  HALF-LIFE: 13.1 to 52.7 h

## COc1ccnc(C[S+]([O-])c2nc3ccc(OC(F)F)cc3[nH]2)c1OC (stereo not drawn) [Pantoprazole]
[1]; [7]
  ORAL BIOAVAILABILITY: 77%
Plasma protein; [7]
  PLASMA PROTEIN BINDING: 98%
[2]; [7]
  HALF-LIFE: 1 h

## CC(=O)Nc1ccc(O)cc1 [Paracetamol]
[1]; [6]
  ORAL BIOAVAILABILITY: 85-98%
Plasma protein; [6]
  PLASMA PROTEIN BINDING: 10-25% ^
[2]; [6]
  HALF-LIFE: 1 to 4 h
